These results are taken from ChEMBL document CHEMBL5678797, “AZD7762, a novel checkpoint kinase inhibitor, drives checkpoint abrogation and potentiates DNA-targeted therapies” (Mol Cancer Ther, 2008).

The subject of series [1] is SW-620. Description: Antitumor activity against human SW620 cells xenografted in NCr athymic mouse model assessed as reduction in tumor volume at 12.5 mg/kg measured from 30 to 55 days in presence of gemcitabine by caliper method relative to control. Type of series: functional. Further details: scale not given: the % may be the effect or the level left. The conditions noted are these: time 30-55 day.

Series [2] concerns SW-620. Description: Antitumor activity against human SW620 cells xenografted in athymic mouse model assessed as inhibition of tumor volume at 25 mg/kg measured after 17 to 94 days post tumor implantation in presence of 50 mg/kg of irinotecan by caliper method relative to control. The following applies: time 17-94 day. Details: scale not given: the % may be the effect or the level left. Type of series: functional.

For series [3], the system named is MDA-MB-231. Description: Growth inhibition of human MDA-MB-231 cells expressing p53 mutant assessed as reduction in cell growth incubated for 48 hrs in presence of topotecan. Type of series: functional.
The test system of series [4] is SW-620. Description: Antitumor activity against human SW620 cells xenografted in athymic mouse model assessed as inhibition of tumor volume at 25 mg/kg measured after 17 to 94 days post tumor implantation by caliper method relative to control. In kind it is functional. Further details: scale not given: the % may be the effect or the level left. The following applies: time 17-94 day.

Series [5] concerns NCI-H460. Description: Antitumor activity against human NCI-H460 cells expressing DNp53 mutant xenografted in NCr athymic mouse model assessed as log cell kill 25 mg/kg measured after 10 to 45 days in presence of gemcitabine. In kind it is functional. The conditions noted are these: time 10-45 day.
Series [6] has as its system NCI-H460. Description: Antitumor activity against human NCI-H460 cells expressing DNp53 mutant xenografted in rat model assessed as T/C ratio at 20 mg/kg measured after 10 to 30 days post tumor implantation in presence of gemcitabine by caliper method relative to control. In kind it is functional. The following applies: time 10-30 day.
The test system of series [7] is NCI-H460. In words: Antitumor activity against human NCI-H460 cells expressing DNp53 mutant xenografted in NCr athymic mouse model assessed as reduction in tumor volume at 25 mg/kg measured after 10 to 45 days in presence of gemcitabine by caliper method relative to control. In kind it is functional. Further details: scale not given: the % may be the effect or the level left. The following applies: time 10-45 day.

Series [8] in a line: Toxicity in rnu rat assessed as appearance of skin rashes at 10 to 20 mg/kg, iv measured after 10 to 30 days post tumor implantation. In kind it is organism-based. The conditions noted are these: in vivo, dose lower 10 mg/kg, time lower 10 day, dose upper 20 mg/kg, time upper 30 day.
For series [9], the system named is HT-29. Description: Inhibition of camptothecin induced DNA damage in human HT-29 cells assessed as G2 checkpoint abrogation measured after 20 hrs presence of nocodazole by pHH3 staining based analysis.
Series [10] has as its system NCI-H460. Description: Antitumor activity against human NCI-H460 cells expressing DNp53 mutant xenografted in rat model assessed as T/C ratio at 10 mg/kg measured after 10 to 30 days post tumor implantation in presence of gemcitabine by caliper method relative to control. The conditions noted are these: time 10-30 day. Type of series: functional. (A xenograft is tissue or cells of one species grown in another, often human tumour cells in immunodeficient mice.)

For series [11], the system named is SW-620. In words: Growth inhibition of human SW620 cells expressing p53 mutant assessed as reduction in cell growth incubated for 48 hrs in presence of gemcitabine. Type of series: functional.
Series [12] concerns HCT-116. In words: Induction of G2 check point abrogation in human HCT-116 cells assessed as accumulation of cells at G2 phase incubated for 30 hrs in presence of topotecan by fluorescence-activated cell sorting analysis (reference value: 9.45%). In kind it is functional.
Series [13] can be described thus: Toxicity in NCr athymic mouse xenografted with human SW620 cells assessed as effect on body weight loss at 12.5 to 25 mg/kg measured after 30 to 55 days in presence of gemcitabine. In kind it is organism-based, SW-620. The conditions noted are these: in vivo, dose lower 12.5 mg/kg, time lower 30 day, dose upper 25 mg/kg, time upper 55 day.
Series [14] is described as follows: Toxicity in athymic mouse assessed as maximum weight loss at 25 mg/kg measured after 17 to 94 days post tumor implantation. In kind it is organism-based. The following applies: in vivo, time 17-94 day.
Series [15] concerns HCT-116. Description: Induction of G2 check point abrogation in human HCT-116 cells assessed as accumulation of cells at G1 phase incubated for 30 hrs in presence of topotecan by fluorescence-activated cell sorting analysis (reference value: 68.52%). Type of series: functional.
Series [16] concerns HT-29. In words: Induction of cell cycle arrest in human HT-29 cells incubated for 20 hrs by phH3 staining based analysis.
Series [17] can be described thus: Toxicity in NCr athymic mouse assessed as body weight loss at 25 mg/kg measured after 10 to 45 days in presence of gemcitabine relative to control. The following applies: in vivo, time 10-45 day. Type of series: organism-based.
A short description of series [18]: Toxicity in rat at low dose measured after 10 to 30 days post tumor implantation. The following applies: in vivo, time 10-30 day.
The subject of series [19] is SW-620. In words: Antitumor activity against human SW620 cells xenografted in athymic mouse model assessed as inhibition of tumor volume at 25 mg/kg measured after 17 to 94 days post tumor implantation in presence of 25 mg/kg of irinotecan by caliper method relative to control. The following applies: time 17-94 day. Details: scale not given: the % may be the effect or the level left. In kind it is functional.

Series [20] can be described thus: Toxicity in athymic mouse assessed as maximum weight loss at 25 mg/kg measured after 17 to 94 days post tumor implantation in presence of 50 mg/kg of irinotecan. The following applies: in vivo, time 17-94 day. Type of series: organism-based.
Series [21] is described as follows: Toxicity in athymic mouse assessed as maximum weight loss at 25 mg/kg measured after 17 to 94 days post tumor implantation in presence of 25 mg/kg of irinotecan. In kind it is organism-based. The conditions noted are these: in vivo, time 17-94 day.
Series [22] in a line: Toxicity in rat assessed as effect on body weight loss at high dose measured after 10 to 30 days post tumor implantation. The conditions noted are these: in vivo, time 10-30 day.
For series [23], the system named is SW-620. Description: Antitumor activity against human SW620 cells xenografted in athymic mouse model assessed as T/C ratio at 25 mg/kg measured after 17 to 94 days post tumor implantation in presence of 25 mg/kg of irinotecan by caliper method relative to control. In kind it is functional. The conditions noted are these: time 17-94 day.
Series [24] deals with SW-620. Description: Antitumor activity against human SW620 cells xenografted in athymic mouse model assessed as T/C ratio at 25 mg/kg measured after 17 to 94 days post tumor implantation in presence of 50 mg/kg of irinotecan by caliper method relative to control. The conditions noted are these: time 17-94 day. Type of series: functional.
The test system of series [25] is SW-620. In words: Antitumor activity against human SW620 cells xenografted in NCr athymic mouse model assessed as reduction in tumor volume at 25 mg/kg measured from 30 to 55 days in presence of gemcitabine by caliper method relative to control. The conditions noted are these: time 30-55 day. Details: scale not given: the % may be the effect or the level left. In kind it is functional.

Series [26] relates to SW-620. In words: Antitumor activity against human SW620 cells xenografted in athymic mouse model assessed as T/C ratio at 25 mg/kg measured after 17 to 94 days post tumor implantation by caliper method relative to control. In kind it is functional. The following applies: time 17-94 day.
For series [27], the system named is NCI-H460. Description: Antitumor activity against human NCI-H460 cells expressing DNp53 mutant xenografted in NCr athymic mouse model assessed as T/C ratio at 25 mg/kg measured after 10 to 45 days in presence of gemcitabine by caliper method relative to control. Type of series: functional. The following applies: time 10-45 day.
Series [28] can be described thus: Toxicity in rnu rat assessed as appearance of hemorrhage at 10 mg/kg measured after 10 to 30 days. In kind it is organism-based. The following applies: in vivo, time 10-30 day.
The subject of series [29] is SW-620. In words: Growth inhibition of human SW620 cells expressing p53 mutant assessed as reduction in cell growth incubated for 48 hrs. In kind it is functional.
Series [30] can be described thus: Toxicity in rnu rat assessed as appearance of skin rashes at 10 mg/kg measured after 10 to 30 days. Type of series: organism-based. The following applies: in vivo, time 10-30 day.
The test system of series [31] is SW-620. Description: Antitumor activity against human SW620 cells xenografted in athymic mouse model assessed as T/C ratio at 50 mg/kg measured after 17 to 94 days post tumor implantation by caliper method relative to control. Type of series: functional. The following applies: time 17-94 day.
The nature of series [32]: Toxicity in athymic mouse assessed as maximum weight loss at 50 mg/kg measured after 17 to 94 days post tumor implantation. The following applies: in vivo, time 17-94 day. Type of series: organism-based.
Series [33] relates to HCT-116. In words: Induction of G2 check point abrogation in human HCT-116 cells assessed as accumulation of cells at G1 phase incubated for 30 hrs by fluorescence-activated cell sorting analysis (reference value: 68.52%). In kind it is functional.
Series [34] has as its system HCT-116. In words: Induction of G2 check point abrogation in human HCT-116 cells assessed as accumulation of cells at G2 phase incubated for 30 hrs by fluorescence-activated cell sorting analysis (reference value: 9.45%). Type of series: functional.
Series [35] concerns MDA-MB-231. Description: cells. The conditions noted are these: Homo sapiens, MDA-MB-231, 48 h.

A word on the GI50: it is the concentration giving 50% growth inhibition. The EC50 is the concentration at which the effect is half-maximal.

A value given as a limit tells only on which side of the number the result lay.

`NC(=O)Nc1cc(-c2cccc(F)c2)sc1C(=O)N[C@H]1CCCNC1` [AZD-7762]: the Activity in series [1] was 73%; in series [2], 116%; in [4], 38%; in series [7], 76%; in [8], “Non-Toxic”; in [12], 33.02%. Also, the Activity result is reported as “Non-Toxic” in series [13]; 0% in [14]; 52.86% in [15]; 7% in [17]; “Non-Toxic” in [18]; 116% in [19]. The Activity is reported as 0% in [20], 0% in [21], “Toxic” in [22] and 77% in series [25]. Moreover, the concentration for 50% growth inhibition (GI50) in series [3] was found to be 150 nM; in series [11] it was 1.08 nM. Besides, the LCK in series [5] is listed as 0.9. For the same compound, the T/C in series [6] is 32%; in series [10] it was 48%; in [23], -66%; in series [24], -67%; in series [26], 56%; in [27] it was 26%. The half-maximal effective concentration (EC50) came to 10 nM in series [9] and 620 nM in [16]. Also, in [11] (read-out: GI100), the TGI came out at 1.5 nM.

For the compound `Nc1ccn([C@@H]2O[C@H](CO)[C@@H](O)C2(F)F)c(=O)n1` [GEMCITABINE], the Activity entry in [28] and in series [30] was “Toxic” each time. Further, the GI50 in series [29] came to 24.1 nM. Further, the TGI in series [29] (read-out: GI100) was greater than 100 nM.

With `CCc1c2c(nc3ccc(OC(=O)N4CCC(N5CCCCC5)CC4)cc13)-c1cc3c(c(=O)n1C2)COC(=O)[C@]3(O)CC` [IRINOTECAN], the Activity in series [14] is on record as 0%; in series [32] it was -1%. For the same compound, the values for the T/C in [31] and in series [26] were 1% and 9%, respectively.

As for `CC[C@@]1(O)C(=O)OCc2c1cc1n(c2=O)Cc2cc3c(CN(C)C)c(O)ccc3nc2-1` [TOPOTECAN], the Activity worked out at 17.06% in series [33] and 75.85% in series [34]. Also, in series [35], growth was halved (GI50) at 2250 nM.
